A short description of series [1]: Entrapment of active agent in PLGA beads with different anti-solvents, amount retained by HPLC and/or NMR. Also on record: % active agent retained in solid beads: concentration or dose not given beside the values. The class given is physicochemical. Conditions: for % active agent retained in solid beads: 50:50 PLGA P2191 beads. The protocol: The entrapment of pharmaceutically active compound was investigated to determine the effect of using different anti-solvents.
The general methodology described above was used. Leuprolide acetate dissolved in DMSO/PLGA mixture at between 1-5 mg/ml of solution. The 50:50 lactide/glycolide polymer P2191 used in Example 3 was used in this Example, at a concentration of 10% w/v.
The flow rates were as used in Example 1. On entering the cooling part of the device, the functional fluid formed frozen droplets. Desolvation of the frozen droplets caused the formation of solid beads.
Various anti-solvents were investigated to determine the effect of the anti-solvent on the amount of active agent (leuprolide acetate) retained in the beads. HPLC and/or NMR were used to determine the amount of leuprolide acetate retained.

A short description of series [2]: Dissolution in warm water of particles precipitated from 10% w/v aqueous solution added dropwise to ethanol. Type of series: physicochemical. Conditions: particles/precipitate formed in ethanol from 10% w/v solution in water. As for the experimental part: It is anticipated that such droplets may be of particular use in assays, since the saccharide would be readily soluble in water or aqueous solution. Solutions of 10% w/v of mannitol and dextran in water were prepared. The solutions were then added dropwise to ethanol. The dextran solution produced amorphous particles in ethanol. […] It is anticipated that a solution comprising both mannitol and dextran may be beneficial in that dextran appears to be suitable for forming discrete particles and mannitol may well be a suitable bulking agent. Furthermore, the mannitol may give the beads a more manageable consistency. Attempts were made to make solid beads from the polyol solutions using the apparatus of FIGS. 1-4. […] It is thought that further cooling of the apparatus is required in order to freeze the droplets. This may be achieved, for example, by improving the cooling capability of the cooler. A solution of 10% w/v of mannitol in dimethyl sulphoxide (DMSO) was prepared. […] It is therefore anticipated that droplets made from this solution would freeze using the apparatus of FIGS. 1 to 4, and that solvent may be extracted from the frozen droplets using an anti-solvent, such as ethanol. As mentioned above, it is anticipated that the saccharide-based droplets may be used in assays. […]

For `CCNC(=O)[C@@H]1CCCN1C(=O)[C@H](CCCNC(=N)N)NC(=O)[C@H](CC(C)C)NC(=O)[C@@H](CC(C)C)NC(=O)[C@H](Cc1ccc(O)cc1)NC(=O)[C@H](CO)NC(=O)[C@H](Cc1c[nH]c2ccccc12)NC(=O)[C@H](Cc1c[nH]cn1)NC(=O)[C@@H]1CCC(=O)N1` [leuprolide acetate, Leuprolide acetate], the “% active agent retained in solid beads” value stood at 63% in series [1] (anti-solvent Ethanol and pentanol); 78% in series [1] (anti-solvent Heptanol (batch 1)); 76% in series [1] (anti-solvent Octanol:ethanol (80:20)); 84% in series [1] (anti-solvent Octanol:ethanol (90:10)); 94% in series [1] (anti-solvent Pentane); 92% in series [1] (anti-solvent Pentanol). Further, the “retention of the active” value in series [1] (lactide/glycolide polymer as bead polymer, various C3 to C8 alcohols as anti-solvent) was 60 to 95%.
Consider `OC[C@@H](O)[C@@H](O)[C@H](O)[C@H](O)CO` [mannitol], for which, in series [2], the “dissolution in warm water” value is “dissolved in warm water”.
The same measure, in the same setting: with dextran the entry was “readily dissolved in warm water”.
